One assay concerns LNCaP cells. Briefly: LNCaP cell activity, CellTiter-Glo live cell detection. Format: cell-based. To be noted: Homo sapiens, 72 h, 1000 cells per well, incubated 3 days, starting concentration 10 uM. On the procedure: Study 2: inhibitory effects of compounds on LNCaP cell activity
The amount of ATP directly reflects the number and the state of the cells, and the number of live cells can be detected by quantitatively measuring ATP. The live cell assay kit contains luciferase and its substrate. Through the participation of ATP, luciferase can catalyze the substrate, emit a stable optical signal, and the amount of ATP in the cell was determined by detecting the intensity of the signal. Wherein, the optical signal is proportional to the amount of ATP in the cell, and ATP is positively correlated with the number of live cells, so that the cell proliferation can be detected. The assay board is analyzed by PE company's Envision.
LNCaP cell was separately seeded in a 384-well plate, each well contains 1000 cells. The cell plate was placed in a carbon dioxide incubator and incubated overnight.
A duplicated experiment was performed with 10 concentrations of compound in a 3-fold dilution with Bravo.
Compound was transferred to the cell plate with a starting concentration of 10 uM. The cell plate was incubated in a carbon dioxide incubator for 3 days.
The Promega CellTiter-Glo reagent was added to the cell plate and incubated for 10 min at room temperature to stabilize the optical signal. Read the data by a PerkinElmer Envision multi-label analyzer.
(ATP-based viability assays read luminescence as a measure of living cells.)

The next assay deals with T1, Akt3 (Homo sapiens, UniProt Q9Y243).
T1 construct: purchased life technology lot 1715050B (lot number only, catalogue number not given)
T1 sequence (Q9Y243 whole entry): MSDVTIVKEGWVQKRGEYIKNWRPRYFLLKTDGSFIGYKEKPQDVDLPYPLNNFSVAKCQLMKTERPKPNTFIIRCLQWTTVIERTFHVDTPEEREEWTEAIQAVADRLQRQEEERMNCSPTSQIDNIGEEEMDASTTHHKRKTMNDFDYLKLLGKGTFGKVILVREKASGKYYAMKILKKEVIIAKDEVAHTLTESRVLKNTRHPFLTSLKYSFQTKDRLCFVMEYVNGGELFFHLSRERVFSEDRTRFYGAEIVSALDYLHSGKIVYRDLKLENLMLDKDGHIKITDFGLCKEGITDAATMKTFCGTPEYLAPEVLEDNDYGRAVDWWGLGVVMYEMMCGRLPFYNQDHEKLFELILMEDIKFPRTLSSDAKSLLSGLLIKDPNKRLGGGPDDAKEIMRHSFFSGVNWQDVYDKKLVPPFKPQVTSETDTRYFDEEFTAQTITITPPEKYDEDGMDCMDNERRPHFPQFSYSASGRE
Briefly: Akt3 kinase inhibition, LANCE TR-FRET. Format: biochemical. The settings on record: Akt3 2 nM, ATP 160 uM, 90 min at room temperature. On the procedure:
(§1) Study 1: The Inhibitory Effect of the Compounds on the Activity of Akt1, Akt2 and Akt3
Akt3 protein (life technology # lot 1715050B)
(§2) In this experiment, a homogeneous time-resolved fluorescence […] energy transfer (LANCE TR-FRET®) method was used. In the assay plate, enzymes, biotinylated polypeptide substrates and compound to be tested were mixed, and ATP was added to initiate the reaction and the mixture was incubated. After that, EDTA was added to terminate the reaction while an Eu-labeled antibody was added to carry out the reaction and the reaction was then detected. The assay plate was analyzed by PE company's Envision, and the analysis mode was TR-FRET. The data were represented by fluorescence signals at 665 nm and 615 nm, respectively.
(§3) Compound formulation: compound to be tested and the reference compound were diluted with 100% DMSO, the initial concentration of the compound was 10 uM, and diluted by 10 times in a 3-fold gradient. Transfer the compound to the cell plate and duplicate each well.
(§4) Kinase assay: the enzyme and substrate were mixed with different concentrations of pre-diluted compounds. […] Leave at room temperature for 15 min and diplicate each concentration. ATP was added, and the final concentrations were 36 uM, 360 uM and 160 uM in Akt1, Akt2, and Akt3 kinase reactions, respectively, and the reaction was carried out for 90 min at room temperature (in which negative and positive controls were set). After the reaction was completed, the antibody was added and the mixture was detected, and the cells were incubated for 60 min at room temperature, and then collected by Evnvision. Data analysis and fitting according to *Lfit5 software.
(In general: Time-resolved FRET reads energy transfer from a long-lived donor to a nearby acceptor.)

For the next assay, the target named is T2, Akt2 (Homo sapiens, UniProt P31751).
T2 construct: purchased life technology lot 28870GG (lot number only, catalogue number not given)
T2 sequence (P31751 whole entry): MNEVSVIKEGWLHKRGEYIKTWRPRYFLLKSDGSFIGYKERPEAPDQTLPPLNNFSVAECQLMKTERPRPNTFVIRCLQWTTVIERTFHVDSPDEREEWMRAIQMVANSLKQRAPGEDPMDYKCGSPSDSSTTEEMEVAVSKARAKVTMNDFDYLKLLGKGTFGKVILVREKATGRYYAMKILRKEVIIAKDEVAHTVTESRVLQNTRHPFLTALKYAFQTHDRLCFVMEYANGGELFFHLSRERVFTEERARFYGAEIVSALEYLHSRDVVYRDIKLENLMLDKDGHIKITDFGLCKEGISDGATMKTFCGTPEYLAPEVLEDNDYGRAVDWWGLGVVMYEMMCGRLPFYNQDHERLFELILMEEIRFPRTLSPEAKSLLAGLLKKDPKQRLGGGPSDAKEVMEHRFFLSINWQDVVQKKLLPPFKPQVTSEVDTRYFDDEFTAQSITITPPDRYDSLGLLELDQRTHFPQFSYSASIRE
Kind of assay: Akt2 kinase inhibition, LANCE TR-FRET. Format: biochemical. The settings on record: Akt2 2 nM, ATP 360 uM, 90 min at room temperature. On the procedure: as §1
Akt2 protein (life technology # lot 28870GG)
as §2, §3, §4

Another assay addresses T3, Akt1 (Homo sapiens, UniProt P31749).
T3 construct: purchased life technology lot11629928C (lot number only, catalogue number not given)
Briefly: Akt1 kinase inhibition, LANCE TR-FRET. Format: biochemical. On the procedure: as §1
Akt1 protein (life technology # lot11629928C)
as §2, §3, §4

T3 sequence (P31749 whole entry): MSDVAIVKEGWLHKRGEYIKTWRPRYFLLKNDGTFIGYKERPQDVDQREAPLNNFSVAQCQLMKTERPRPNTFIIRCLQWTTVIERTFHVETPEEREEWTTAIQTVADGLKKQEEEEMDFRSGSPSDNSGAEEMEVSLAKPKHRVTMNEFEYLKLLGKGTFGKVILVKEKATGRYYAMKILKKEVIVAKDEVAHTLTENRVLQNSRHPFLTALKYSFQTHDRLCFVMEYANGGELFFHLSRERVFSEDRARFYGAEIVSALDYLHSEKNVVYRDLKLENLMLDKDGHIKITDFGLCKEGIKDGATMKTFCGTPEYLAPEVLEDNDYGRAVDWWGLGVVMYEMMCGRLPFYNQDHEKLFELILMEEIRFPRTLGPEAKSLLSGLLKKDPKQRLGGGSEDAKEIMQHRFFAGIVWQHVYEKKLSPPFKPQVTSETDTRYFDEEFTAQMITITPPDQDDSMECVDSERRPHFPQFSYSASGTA

Consider `NC[C@H](Cc1cccnc1)NC(=O)c1cc2c(s1)CCCn1ncc(Cl)c1-2` [Embodiment 2], for which the IC50 with LNCaP cells amounted to 666 nM; against Akt3 it was 294 nM; on Akt2, 266 nM; at Akt1, 6.64 nM.

Consider `NC[C@H](Cc1ccc(F)c(F)c1F)NC(=O)c1cc2c(s1)CCCn1ncc(Br)c1-2` [Embodiment 15], for which the IC50 with LNCaP cells stood at 85 nM; against Akt3, 16 nM; at Akt2 it was 20 nM; on Akt1, 0.67 nM.

On to `NC[C@H](Cc1cccc(F)c1)NC(=O)c1cc2n(n1)CCCn1ncc(Cl)c1-2` [Embodiment 36], for which the IC50 turned out to be 902 nM in the assay with LNCaP cells, 195 nM against Akt3, 235 nM at Akt2 and 9.78 nM on Akt1.

Turning to `NC[C@H](Cc1ccc(F)cc1F)NC(=O)c1cc2c(s1)CCCn1ncc(Cl)c1-2` [Embodiment 5], the 50% inhibitory concentration (IC50) in the assay on LNCaP cells amounted to 199 nM; against Akt3 it was 77 nM; against Akt2, 77 nM; on Akt1 it was 2.54 nM.

Consider `NC[C@H](Cc1cccc(F)c1)NC(=O)c1cc2c(s1)CCCn1ncc(Br)c1-2` [Embodiment 14], for which the IC50 stood at 36 nM in the assay with LNCaP cells, 34 nM against Akt3, 11 nM on Akt2 and 0.33 nM on Akt1.

With `NC[C@H](Cc1cccc(F)c1)NC(=O)c1cc2c(s1)CCCn1ncc(-c3cccnc3)c1-2` [Embodiment 24], the 50% inhibitory concentration (IC50) in the assay with LNCaP cells was determined as 3560 nM; at Akt3, 398 nM; against Akt2, 1860 nM; against Akt1, 67.4 nM.

Consider `NC[C@@H](NC(=O)c1cc2c(s1)CCCn1ncc(Cl)c1-2)c1ccccc1` [Embodiment 13], for which the IC50 with LNCaP cells stood at 514 nM; against Akt3, 189 nM; on Akt2, 188 nM; against Akt1 it was 11 nM.

On to `CCc1cnn2c1-c1cc(C(=O)N[C@H](CN)Cc3cccc(F)c3)sc1CCC2` [Embodiment 25], for which the IC50 in the assay with LNCaP cells worked out at 389 nM; on Akt3, 83 nM; against Akt2, 143 nM; against Akt1, 5.22 nM.

Turning to `NCC(CCc1ccccc1)NC(=O)c1cc2c(s1)CCCn1ncc(Cl)c1-2` (centres unmarked) [Embodiment 29], the IC50 stood at 2620 nM with LNCaP cells, 783 nM on Akt3, 1100 nM on Akt2 and 36 nM against Akt1.

On to `Cc1cnn2c1-c1cc(C(=O)N[C@H](CN)Cc3ccc(F)c(F)c3)sc1OCC2` [Embodiment 39], for which the half-maximal inhibitory concentration (IC50) was 144 nM in the assay on LNCaP cells, 122 nM on Akt3, 76 nM on Akt2 and 1.5 nM on Akt1.

Turning to `NC[C@H](Cc1cccc(F)c1F)NC(=O)c1cc2c(s1)CCCn1ncc(Br)c1-2` [Embodiment 16], the IC50 in the assay on LNCaP cells stood at 233 nM; against Akt3 it was 45 nM; against Akt2, 45 nM; against Akt1, 0.85 nM.

As usually defined, the IC50 is the concentration that inhibits the measured activity by half. Low values mean inhibition by little substance, high ones a need for much substance.

The record behind these values is patent publication US10654868B2, “Dihydropyrazole azepine compound serving as Akt inhibitor” (HARBIN ZHENBAO PHARMACEUTICAL CO., LTD., priority 2016, dated 2020).
